The values below come from patent US11690833B2, “Personal care compositions” (priority 2017, dated 2023).

One data set concerns oral bacteria. Nature of the data set: Alamar Blue evaluation of antibacterial efficacy in the presence of the anionic surfactant SLS. Particulars: 10 mg active + 20 mg of 30 weight % SLS solution + 5 ml oral bacteria solution, 37° C., 1 hour after addition of Alamar Blue dye, color change from blue to red indicates live bacteria. The class given is cell-based, human saliva. As to the method: In particular, the antibacterial efficacy of a CPC—ZnCl2 complex was compared to ZnCl2 and CPC individually, in the presence of SLS, as follows: human saliva was collected and diluted three times with deionized water, centrifuged, and decanted to yield a translucent solution of oral bacteria. […] A negative control was also prepared adding 20 mg (+/−0.9 mg) of the 30 weight % SLS aqueous solution and 5 ml of the prepared oral bacteria solution to deionized water instead of the antibacterial ingredient. The samples were then placed in a 37° C. oven and shaken at 100 RPM for 30 minutes. 200 μL of Alamar Blue dye was then added to each sample and placed back in the 37° C. oven and shaken at 100 RPM. The samples were then monitored every 30 minutes, with the results 1 hour after addition of the dye recorded in Table 1. Under an Alamar Blue assay, a color change from blue to red indicates the presence of live bacteria.

Like-named read-outs stand apart in the source and are kept apart here.

In the case of `CCCCCCCCCCCCCCCC[n+]1ccccc1` [CPC, cetylpyridinium chloride], the “Color of Solution” value in the data set on oral bacteria was “pink and Pink”.

In the case of `CCCCCCCCCCCCCCCC[n+]1ccccc1.CCCCCCCCCCCCCCCC[n+]1ccccc1.[Cl][Zn-2]([Cl])([Cl])[Cl]` [CPC-ZnCl2 complex], the solubility in water result reads like this: (0.1 weight % solution, room temperature (23-24° C.)) “soluble”; (0.5 weight % solution, room temperature (23-24° C.)) “soluble”; (1.0 weight % solution, physiological temperature (36-37° C.)) “soluble”; (1.0 weight % solution, room temperature (23-24° C.), after 24 hours of aging) “undissolved”; (10 weight % solution, physiological temperature (36-37° C.)) “not fully soluble”; (10.0 weight % solution, room temperature (23-24° C.), after 24 hours of aging) “undissolved”. Moreover, the “reduction in solubility compared to the CPC and ZnCl2 reactants separately” value (water) is no less than 25 fold. The figures for the “Color of Solution” value with oral bacteria and in the data set on oral bacteria (listed as CPC—ZnCl2 complex) were “Blue” and “blue”, respectively.

`[Cl-].[Cl-].[Zn+2]` [ZnCl2, zinc chloride]: the “Color of Solution” value in the data set with oral bacteria was “Purple”.
